According to PubChem BioAssay (NCI):
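Each compound was tested at five concentrations against cells in 96-well plates for 48 hours. GI50: concentration for 50% inhibition of growth. Definition used: TGI = concentration required for complete inhibition of growth.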

Key:
Experiment in all cases: NCI tumour cell line growth inhibition, 48 h
HOP-62 NSCLC = system: HOP-62 NSCLC
SK-MEL-2 melanoma = system: SK-MEL-2 melanoma
SW-620 colon = system: SW-620 colon
M14 melanoma = system: M14 melanoma
IGROV1 ovarian = system: IGROV1 ovarian
RXF 393 renal = system: RXF 393 renal
T-47D breast = system: T-47D breast
SF-295 CNS = system: SF-295 CNS
BT-549 breast = system: BT-549 breast
U251 CNS = system: U251 CNS
OVCAR-8 ovarian = system: OVCAR-8 ovarian
DU-145 prostate = system: DU-145 prostate
SNB-75 CNS = system: SNB-75 CNS
MCF7 breast = system: MCF7 breast
NCI-H226 lung = system: NCI-H226 lung
UO-31 renal = system: UO-31 renal
HOP-92 NSCLC = system: HOP-92 NSCLC
NCI-H522 lung = system: NCI-H522 lung
SF-539 CNS = system: SF-539 CNS
SNB-19 CNS = system: SNB-19 CNS
A498 renal = system: A498 renal
CAKI-1 renal = system: CAKI-1 renal
SK-OV-3 ovarian = system: SK-OV-3 ovarian
MDA-MB-231 breast = system: MDA-MB-231 breast
OVCAR-4 ovarian = system: OVCAR-4 ovarian
OVCAR-5 ovarian = system: OVCAR-5 ovarian
RPMI-8226 leukemia = system: RPMI-8226 leukemia
MDA-MB-435 = system: MDA-MB-435
A549 NSCLC = system: A549 NSCLC
HS 578T breast = system: HS 578T breast
UACC-62 melanoma = system: UACC-62 melanoma
HCC-2998 colon = system: HCC-2998 colon
OVCAR-3 ovarian = system: OVCAR-3 ovarian
NCI-H460 lung = system: NCI-H460 lung
HCT-15 colon = system: HCT-15 colon
SN12C renal = system: SN12C renal
LOX IMVI melanoma = system: LOX IMVI melanoma
NCI/ADR-RES ovarian = system: NCI/ADR-RES ovarian
COLO 205 colon = system: COLO 205 colon
CCRF-CEM leukemia = system: CCRF-CEM leukemia
SF-268 CNS = system: SF-268 CNS
SK-MEL-28 melanoma = system: SK-MEL-28 melanoma
PC-3 prostate = system: PC-3 prostate
UACC-257 melanoma = system: UACC-257 melanoma
EKVX NSCLC = system: EKVX NSCLC
SK-MEL-5 melanoma = system: SK-MEL-5 melanoma
HCT-116 colon = system: HCT-116 colon
HT29 colon = system: HT29 colon
NCI-H23 lung = system: NCI-H23 lung
786-0 renal = system: 786-0 renal

For `Nc1ncc2ccc3c(ccn3C3CC(O)C(CO)O3)c2n1` (stereo not given), the GI50 (HOP-62 NSCLC) was greater than 100 µM, the TGI (HOP-62 NSCLC) was greater than 100 µM and the GI50 (SK-MEL-2 melanoma) was greater than 100 µM. For the same compound, the TGI (SK-MEL-2 melanoma) was greater than 100 µM, the GI50 (SW-620 colon) was greater than 100 µM and the TGI (SW-620 colon) was greater than 100 µM. For the same compound, the GI50 (M14 melanoma) was greater than 100 µM, the TGI (M14 melanoma) was greater than 100 µM and the GI50 (IGROV1 ovarian) was greater than 100 µM. It also gave a TGI (IGROV1 ovarian) greater than 100 µM, a GI50 (RXF 393 renal) greater than 100 µM and a TGI (RXF 393 renal) greater than 100 µM. It also gave a GI50 (T-47D breast) greater than 100 µM, a TGI (T-47D breast) greater than 100 µM and a GI50 (SF-295 CNS) greater than 100 µM. It also gave a TGI (SF-295 CNS) greater than 100 µM, a GI50 (BT-549 breast) greater than 100 µM and a TGI (BT-549 breast) greater than 100 µM. It also gave a GI50 (U251 CNS) greater than 100 µM, a TGI (U251 CNS) greater than 100 µM and a GI50 (OVCAR-8 ovarian) greater than 100 µM. For the same compound, the TGI (OVCAR-8 ovarian) was greater than 100 µM, the GI50 (DU-145 prostate) was greater than 100 µM and the TGI (DU-145 prostate) was greater than 100 µM. It also gave a GI50 (SNB-75 CNS) of 42.4 µM, a TGI (SNB-75 CNS) greater than 100 µM and a GI50 (MCF7 breast) of 87.2 µM. For the same compound, the TGI (MCF7 breast) was greater than 100 µM, the GI50 (NCI-H226 lung) was greater than 100 µM and the TGI (NCI-H226 lung) was greater than 100 µM. The GI50 (UO-31 renal) was greater than 100 µM, the TGI (UO-31 renal) was greater than 100 µM and the GI50 (HOP-92 NSCLC) was greater than 100 µM. For the same compound, the TGI (HOP-92 NSCLC) was greater than 100 µM, the GI50 (NCI-H522 lung) was greater than 100 µM and the TGI (NCI-H522 lung) was greater than 100 µM. It also gave a GI50 (SF-539 CNS) greater than 100 µM, a TGI (SF-539 CNS) greater than 100 µM and a GI50 (SNB-19 CNS) greater than 100 µM. The TGI (SNB-19 CNS) was greater than 100 µM, the GI50 (A498 renal) was 18.3 µM and the TGI (A498 renal) was greater than 100 µM. The GI50 (CAKI-1 renal) was greater than 100 µM, the TGI (CAKI-1 renal) was greater than 100 µM and the GI50 (SK-OV-3 ovarian) was greater than 100 µM. It also gave a TGI (SK-OV-3 ovarian) greater than 100 µM, a GI50 (MDA-MB-231 breast) greater than 100 µM and a TGI (MDA-MB-231 breast) greater than 100 µM. The GI50 (OVCAR-4 ovarian) was greater than 100 µM, the TGI (OVCAR-4 ovarian) was greater than 100 µM and the GI50 (OVCAR-5 ovarian) was greater than 100 µM. It also gave a TGI (OVCAR-5 ovarian) greater than 100 µM, a GI50 (RPMI-8226 leukemia) greater than 100 µM and a TGI (RPMI-8226 leukemia) greater than 100 µM. For the same compound, the GI50 (MDA-MB-435) was greater than 100 µM, the TGI (MDA-MB-435) was greater than 100 µM and the GI50 (A549 NSCLC) was greater than 100 µM. For the same compound, the TGI (A549 NSCLC) was greater than 100 µM, the GI50 (HS 578T breast) was greater than 100 µM and the TGI (HS 578T breast) was greater than 100 µM. For the same compound, the GI50 (UACC-62 melanoma) was greater than 100 µM, the TGI (UACC-62 melanoma) was greater than 100 µM and the GI50 (HCC-2998 colon) was greater than 100 µM. It also gave a TGI (HCC-2998 colon) greater than 100 µM, a GI50 (OVCAR-3 ovarian) greater than 100 µM and a TGI (OVCAR-3 ovarian) greater than 100 µM. For the same compound, the GI50 (NCI-H460 lung) was greater than 100 µM, the TGI (NCI-H460 lung) was greater than 100 µM and the GI50 (HCT-15 colon) was greater than 100 µM. For the same compound, the TGI (HCT-15 colon) was greater than 100 µM, the GI50 (SN12C renal) was greater than 100 µM and the TGI (SN12C renal) was greater than 100 µM. For the same compound, the GI50 (LOX IMVI melanoma) was greater than 100 µM, the TGI (LOX IMVI melanoma) was greater than 100 µM and the GI50 (NCI/ADR-RES ovarian) was greater than 100 µM. The TGI (NCI/ADR-RES ovarian) was greater than 100 µM, the GI50 (COLO 205 colon) was greater than 100 µM and the TGI (COLO 205 colon) was greater than 100 µM. The GI50 (CCRF-CEM leukemia) was greater than 100 µM, the TGI (CCRF-CEM leukemia) was greater than 100 µM and the GI50 (SF-268 CNS) was greater than 100 µM. For the same compound, the TGI (SF-268 CNS) was greater than 100 µM, the GI50 (SK-MEL-28 melanoma) was greater than 100 µM and the TGI (SK-MEL-28 melanoma) was greater than 100 µM. It also gave a GI50 (PC-3 prostate) greater than 100 µM, a TGI (PC-3 prostate) greater than 100 µM and a GI50 (UACC-257 melanoma) greater than 100 µM. The TGI (UACC-257 melanoma) was greater than 100 µM, the GI50 (EKVX NSCLC) was greater than 100 µM and the TGI (EKVX NSCLC) was greater than 100 µM. For the same compound, the GI50 (SK-MEL-5 melanoma) was greater than 100 µM, the TGI (SK-MEL-5 melanoma) was greater than 100 µM and the GI50 (HCT-116 colon) was greater than 100 µM. The TGI (HCT-116 colon) was greater than 100 µM, the GI50 (HT29 colon) was greater than 100 µM and the TGI (HT29 colon) was greater than 100 µM. It also gave a GI50 (NCI-H23 lung) greater than 100 µM, a TGI (NCI-H23 lung) greater than 100 µM and a GI50 (786-0 renal) greater than 100 µM. The TGI (786-0 renal) was greater than 100 µM.
